Consider one molecule from patent publication US12414924B2 (Duke University, priority 2016, dated 2025).

In series [1] the target is T1, wild-type (WT) ERα (Homo sapiens, UniProt P03372).
T1 construct: expressed in transfected cells; host or cells: Caov2 ovarian carcinoma cells; SKBR3 breast adenocarcinoma cells
T1 sequence (P03372 1-595): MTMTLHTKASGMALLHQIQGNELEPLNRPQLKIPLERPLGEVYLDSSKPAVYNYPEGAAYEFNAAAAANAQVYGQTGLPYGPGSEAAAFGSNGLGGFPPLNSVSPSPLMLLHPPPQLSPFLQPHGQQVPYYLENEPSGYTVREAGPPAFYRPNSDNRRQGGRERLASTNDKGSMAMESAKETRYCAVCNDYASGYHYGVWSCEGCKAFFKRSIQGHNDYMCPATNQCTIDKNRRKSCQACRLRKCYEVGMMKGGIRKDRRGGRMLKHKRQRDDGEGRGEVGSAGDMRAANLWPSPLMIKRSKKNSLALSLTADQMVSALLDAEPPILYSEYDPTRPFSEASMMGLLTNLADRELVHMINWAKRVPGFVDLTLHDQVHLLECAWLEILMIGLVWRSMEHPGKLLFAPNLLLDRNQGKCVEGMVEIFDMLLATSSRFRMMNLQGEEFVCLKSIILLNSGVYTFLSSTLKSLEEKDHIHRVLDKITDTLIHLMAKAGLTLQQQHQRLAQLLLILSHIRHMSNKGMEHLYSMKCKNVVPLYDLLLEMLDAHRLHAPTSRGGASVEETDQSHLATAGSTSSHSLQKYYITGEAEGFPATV
In words: ERE-luciferase reporter gene assay in Caov2 cells, wild-type receptor. The format is cell-based. The settings on record: Caov2, in presence of 1 nM 17-β estradiol, 24 h. The method, then: (§1) ExSite mutagenesis was performed using the corresponding primers as summarized in Table 1 below on a pENTR2B ERα WT construct using Pfu ultra taq polymerase. The primers were PNK phosphorylated. Following PCR amplification, the products were digested with DpnI at 37° C. for 1 hr, followed by overnight ligation at 16° C. Ligated products were transformed into DH5α bacterial cells and grown on kanamycin resistant plates. The pENTR clones were verified by sequencing and then swapped into the pcDNA-DEST vector using the Gateway system (Invitrogen) for expression analysis.
(§2) Caov2 ovarian carcinoma cells were grown in RPMI-1640 media (Gibco) supplemented with 8% Fetal Bovine Serum (FBS), Sodium Pyruvate (NaPyr) and non-essential amino acids (NEAA) and passaged every 2-3 days. SKBR3 breast adenocarcinoma cells were grown in DMEM media (Gibco) supplemented with 8% Fetal Bovine Serum (FBS), Sodium Pyruvate (NaPyr) and non-essential amino acids (NEAA) and passaged every 2-3 days. Cells were switched into a phenol-red free RPMI-1640 media supplemented with 8% charcoal stripped fetal bovine serum (CFS), NaPyr, and NEAA one day before plating for experiment. Cells were then plated in 96-well plates for experiment in the phenol red-free media an additional day before transfection.
(§3) The plots include data from five independent experiments and each value is an average of triplicates from each experiment. […]

Series [2] addresses T2, ERα LBD mutant Y537C (Homo sapiens, UniProt P03372, Y537C).
T2 construct: expressed in transfected cells; host or cells: Caov2 ovarian carcinoma cells; SKBR3 breast adenocarcinoma cells
T2 sequence (P03372 1-595 Y537C): T1 sequence (P03372 1-595) with Y537C
Kind of series: ERE-luciferase reporter gene assay in SKBR3 cells, Y537C mutant receptor. The format is cell-based. The settings on record: SKBR3, in presence of 1 nM 17-β estradiol, 24 h. The method, then:
as §1, §2, §3

Series [3] in a line: Reported Cmax in blood at doses used in prior clinical trials. The format is in vivo. The settings on record: human, read-out: Converted (M) Cmax. The text has this:
See Maximov et al., Current ClinicalPharmacology 8(2): 135-155 (2013). […] See Assessment Report for Fablyn, 2009 (EMA). […] See Gardner et al., J Clin Pharmacol 46(1): 52-58 (2006).

For series [4] the following is noted: PEARL trial, cited from earlier work.
Series [5] addresses T2, ERα LBD mutant Y537C. Kind of series: ERE-luciferase reporter gene assay in Caov2 cells, Y537C mutant receptor. Type of series: cell-based. The settings on record: Caov2, in presence of 1 nM 17-β estradiol, 24 h. The method, then: as §1, §2, §3
The target in another series is T3, ERα LBD mutant Y537N (Homo sapiens, UniProt P03372, Y537N).
T3 construct: expressed in transfected cells; host or cells: Caov2 ovarian carcinoma cells; SKBR3 breast adenocarcinoma cells
T3 sequence (P03372 1-595 Y537N): T1 sequence (P03372 1-595) with Y537N
In words: ERE-luciferase reporter gene assay in Caov2 cells, Y537N mutant receptor. Type of series: cell-based. The settings on record: Caov2, in presence of 1 nM 17-β estradiol, 24 h. The method, then: as §1, §2, §3

The target in series [6] is T1, wild-type (WT) ERα. In words: ERE-luciferase reporter gene assay in SKBR3 cells, wild-type receptor. The format is cell-based. The settings on record: SKBR3, in presence of 1 nM 17-β estradiol, 24 h. The method, then: as §1, §2, §3

Changes are numbered by the printed parent chain. Like-named read-outs stand apart in the source and are kept apart here.

On to `Oc1ccc2c(c1)CC[C@H](c1ccccc1)[C@@H]2c1ccc(OCCN2CCCC2)cc1` [Lasofoxifene], for which the 90% effect concentration (IC90) on wild-type (WT) ERα [1] came out at 6.68 pM; on ERα LBD mutant Y537C [2], 5.9 nM; on ERα LBD mutant Y537C [5] it was 0.204 nM; on ERα LBD mutant Y537N, 0.745 nM; at wild-type (WT) ERα [6] it was 3.3 nM. The Cmax in series [3] (0.5 mg dose) came to 9e-09 M; in series [3] (1 mg dose), 1.55e-08 M. Further, the “risk of osteoporosis” value in series [4] (placebo-controlled) is listed as “reduce the risk of osteoporosis”. Besides, in series [4] (post-menopausal women with osteoporosis), the “risk of breast cancer” value was “reduced the risk of breast cancer in post-menopausal women with osteoporosis”.
